Assay results published in US8048455B2, “Treatment of cancer and inflammatory disorder” (Academia Sinica, priority 2006, dated 2011).

Experiments:
Format in all cases: cell-based, murine
iNOS protein = iNOS protein expression (immunoblotting) in LPS-stimulated RAW264.7 cells; conditions: LPS 1 μg/mL 18 h
Description: (§1) Total cellular proteins and the specific cytosolic and nuclear proteins were prepared using methods described in Chiang et al. Protein content was measured by the Bradford method (Bio-Rad). Protein was resolved by 5-20% gradient SDS-PAGE and subjected to immunoblotting using enhanced chemiluminescence reagents (ECL, Amersham). Monoclonal antibodies against PARP (Transduction Laboratories, Lexington, Ky.), GA3PDH (Biogenesis, Poole, UK), α-tubulin (Oncogene Science, Cambridge, UK), COX-2 (Cayman Chemical), phospho-(Ser32)-IκBα, phospho-IKKα(Ser180)/IKKβ(Ser181) (New England Biolabs, Beverly, Mass.), iNOS, IκBα, IKKα/β or NF-κB p65 (RelA) (Santa Cruz Biotechnology, Santa Cruz, Calif.) were used.
RAW264.7 cells were treated with the indicated concentrations of dLGG for 1 hour then LPS (1 μg/mL) was added for 18 hours. Total cellular protein (20 μg) was then subjected to immunoblotting. Quantification of iNOS mRNA and protein expression involved normalization to GA3PDH (internal control) by densitometry. […] Thus, the dLGG-induced inhibition of NO production in LPS-stimulated macrophages is also mediated through suppression of both transcription and translation of iNOS.

COX-2 mRNA = COX-2 mRNA expression (RT-PCR) in LPS-stimulated macrophages; conditions: 75 μg/mL
Description: For each RT-PCR analysis, 2 μg of total RNA isolated with TRIZOL® Reagent was used to synthesize 1st-strand cDNA using […]™ II Reverse Transcriptase (Invitrogen). The iNOS and COX-2 genes were amplified and analyzed using specific oligonucleotide primers and PCR reactions by method described in Chiang et al. Br J Pharmacol 2005; 146:352-63).
(§2) It was further examined whether dLGG affects COX-2 mRNA and protein expression using RT-PCR and immunoblotting. Cells were treated with dLGG for 1 hour, then LPS (1 μg/mL) was added for 18 hours. Total cellular protein (20 μg) was subjected to immunoblotting. Quantification of COX-2 mRNA and protein expression involved normalization to GA3PDH by densitometry.

COX-2 protein = COX-2 protein expression (immunoblotting) in LPS-stimulated macrophages; conditions: LPS 18 h
Description: as §1, §2

[1] = tested on: LPS binding to LPS receptors on macrophages; test: Binding of FITC-labeled LPS to macrophages

CC/C=C\C/C=C\C/C=C\CCCCCCCC(=O)OC[C@H](CO[C@@H]1O[C@H](CO)[C@H](O)[C@H](O)[C@H]1O)OC(=O)CCCCCCC/C=C\C/C=C\C/C=C\CC [dLGG, 1,2-di-O-α-linolenoyl-3-O-β-galactopyranosyl-sn-glycerol]
iNOS protein level (iNOS protein): Little iNOS protein was detected
Inhibition of COX-2 mRNA expression (COX-2 mRNA): ~29%
Suppression of LPS-induced COX-2 protein synthesis (COX-2 protein; 50 μg/mL): approximately 60%
COX-2 protein level (COX-2 protein; 75 μg/mL): barely detectable
Binding of FITC-labeled LPS to the test macrophages [1]: dose-dependently suppress
